Values quoted from earlier work, collected in patent US9481672B2 (priority 2012, dated 2016).

Test system: chymase
Conditions: hamsters, myocardial infarction model

## CCOc1ccccc1CC1C(=O)N(C(=O)NC(c2ccc(C)cc2)c2ccc(C)cc2)C1Oc1ccc(C(=O)O)cc1 (stereo not drawn) [BCEAB]
  chymase activity: reduced
  haemodynamics: improved
  mortality: reduced
